Reference: patent US20040013643A1, “Methods for treatment of multiple sclerosis with statins” (Novlmmune S.A., priority 2000, published 2004)
“Also recorded” adds a separate entry of the source.

How the values were obtained:
CD40 mediated pathways = test: Cytokine release (MCP-1, IL-6, IL-8) from endothelial cells activated by CD40L, ELISA; assay type: cell-based, human; conditions: ECs; CD154 stimulation with statin; L-mevalonate added
Protocol: Cytokines assay. […] Experiments were performed in the presence of polymyxin B (1 μg/ml). Antibody binding was detected by adding substrate (R&D), and absorbance measured at 450 nm using a Dynatech plate reader. The amount of IL-6, IL-8 and MCP-I detected was calculated from a standard curve prepared with the recombinant protein. Samples were assayed in duplicates.
To investigate the functional consequences of inhibition of CD40 expression by statins on Endothelial Cells activation by CD40L, secreted cytokines were analyzed such as Interleukin-6 (IL-6), interleukin-8 (IL-8), macrophages chemoattractant protein-1 (MCP-1).

CD40 = test: IFN-γ induced CD40 expression on human vascular endothelial cells (Western blot, FACS); assay type: cell-based; conditions: ECs
Protocol: Cell isolation and culture. Human vascular endothelial cells (ECs) were isolated from saphenous veins and mammary arteries by collagenase treatment (Worthington Biochemicals), and cultured in dishes coated with gelatin (Difco). Cells were maintained in medium 199 (1 4199; BioWhittaker) supplemented with 100 U/ml penicillin/streptomycin (BioWhittaker), 5% FCS (Gibco), 100 μg/ml heparin (Sigma) and 50 μg/ml ECGF (endothelial cell growth factor; Pel-Freez Biological). Human vascular smooth muscle (SMCs) cells were isolated from human saphenous veins and mammary arteries by explant outgrowth, and cultured in DMEM (BioWhittaker) supplemented with 1% L-glutamine (BioWhittaker), 1% penicillin/streptomycin, and 10% FCS. Both cell types were subculture following trypsinization (0.5% trypsin (Worthington Biochemicals)/0.2% EDTA (EM Science)) in P100-culture dishes (Becton Dickinson). Culture media and FCS contained less than 40 pg LPS/ml as determined by chromogenic Limulus amoebocyte-assay analysis (QLC1000; BioWhittaker).
Western blot analysis. Cells were harvested in ice-cold RIPA solubilization buffer, and total amounts of protein were determined using a bicinchoninic acid quantification assay (Pierce, Rockford, Ill.). Twenty μg of total protein/lane were separated by SDS/PAGE under reducing conditions and blotted to polyvinylidene difluoride membranes (Millipore Corp, Bedford, Mass.) using a semidry blotting apparatus (Bio-Rad, Hercules, Calif.). Blots were blocked overnight in 5% defatted dry milk/PBS/0.1% Tween, and then incubated for 1 hour at room temperature with primary antibody (1:40) (rabbit polyclonal anti-CD40 Santa Cruz, San Diego, Calif.), or mouse monoclonal anti-human P-actin (1:5000) (Phanningen) for control of loading. This was followed by a 1 hour incubation with secondary peroxidase-conjugated antibody (1:10′000), (Jackson Immunoresearch, West Grove, Pa.). All steps were performed at room temperature and in between incubation steps cells were rinsed with PBS/0.1% Tween. lmmunoreactivity was detected using the enhanced chemiluminescence detection method according to the manufacturer's instructions. (Amersharn, Ddbendorf, Switzerland), and subsequent exposure of the membranes to x-ray film. Analysis of quantification of detection was performed using AIDA software.
Flow cytometry. Cells were incubated with FITC-conjugated specific antibody (60 min, […]) and analyzed in a Becton Dickinson FACScan flow cytometer. At least 20.000 viable cells were analyzed per condition. Data were analyzed using […] software (Becton Dickinson).
Surface CD40 expression was analyzed by […] after 24 hrs.

MHC class II = conditions: Atorvastatin, Lovastatin, Pravastatin compared; FIG. 1a
Protocol: Cell isolation and culture. […] Flow cytometry. […] Data were analyzed using […] software (Becton Dickinson).

## L-mevalonate
CD40 mediated pathways
  reversal of the statin effect by addition of L-mevalonate: significantly reverses the process

## CC[C@H](C)C(=O)O[C@H]1C[C@@H](C)C=C2C=C[C@H](C)[C@H](CC[C@@H]3C[C@@H](O)CC(=O)O3)[C@H]21 [Lovastatin]
CD40; IFN-γ 500 U/ml, 24 hrs
  IFN-γ induced CD40 expression: decreased

## CC(C)c1c(C(=O)Nc2ccccc2)c(-c2ccccc2)c(-c2ccc(F)cc2)n1CC[C@@H](O)C[C@@H](O)CC(=O)O [Atorvastatin]
MHC class II
  relative potency as MHC class II repressor among the forms tested: most powerful MHC class II repressor
CD40; IFN-γ 500 U/ml, 24 hrs
  IFN-γ induced CD40 expression: repressed this induction of CD40 in a dose-dependant manner; also recorded: decreases IFN-γ induced CD40 protein expression on human atheroma-associated cells in a dose-dependant manner
CD40; IFN-γ 500 U/ml, 24 hrs, FIG. 7
  concentration range over which the effect on IFN-γ induced CD40 was observed: 0.08 to 0.5 µM
CD40; IFN-γ 500 U/ml, 24 hrs, listed as atorvastatin
  IFN-γ induced CD40 expression: decreased
CD40; with L-mevalonate
  effect on IFN-γ induced CD40 in the presence of L-mevalonate: markedly reduced
CD40; without IFN-γ
  CD40 expression, treatment with statin alone: had an effect on CD40 expression
